Read-outs that look alike come from different tables or passages of the source.
How the values were obtained:
[1] = Midazolam pharmacokinetics; type: in vivo, human
[2] = type: in vivo, human; conditions: for Increase of sunitinib exposure by grapefruit juice: model estimate; for AUC(0-t): AUC0–24 h
[3] = cited from earlier work
ABCG2 = conditions: in vitro; cited from earlier work
ABCB1 = conditions: in vitro; cited from earlier work
[4] = test system: organic anion transporting polypeptides (OATPs); conditions: in vitro; cited from earlier work
[5] = cited from earlier work; remark: listed apart in the source
[6] = Literature clinical pharmacokinetics of sunitinib; conditions: follows from half-life ~50 h
[7] = cited from earlier work; remark: listed apart in the source
[8] = final population PK model, cancer patients
[9] = human, plasma, oral, sunitinib with grapefruit juice when simultaneously taken, mean (range)
[10] = sunitinib with grapefruit juice when simultaneously taken, mean (range)

Question: Which results are given for `Cc1ncc2n1-c1ccc(Cl)cc1C(c1ccccc1F)=NC2` [midazolam]?
Answer: AUC(0-t) ([1]; human, plasma, po, 7.5 mg, Midazolam AUC0–24 h, without GJ, single oral 7.5 mg midazolam, mean (±SEM)): 122 ng·h/mL; Increase of midazolam exposure (AUC0–24 h) by GJ ([1]; second vs first PK day): ~ 50%

Question: What does the source list for `CCN(CC)CCNC(=O)c1c(C)[nH]c(/C=C2\C(=O)Nc3ccc(F)cc32)c1C` [sunitinib, Sunitinib malate]?
Answer: Increase of sunitinib exposure by grapefruit juice ([2]; GJ consumed 7 h before the sunitinib dose): ~ 8.9%; Absorption lag time, estimate [2, 8]: 0.487 h; ka (absorption rate constant), estimate [2, 8]: 0.468 h⁻¹; Cl/F (apparent clearance), estimate ([2]; final population PK model, cancer patients, oral sunitinib 25-50 mg once daily): 50.5 L/h; Tmax ([2]; human, plasma, oral): 8.2 h; Vd/F ([2]; human, plasma, oral): 3210 L; half-life ([2]; human, plasma, oral): 53 h; AUC(0-t) [2, 9]: 1240 ng·h/mL; AUC(0-t) ([2]; human, plasma, oral, sunitinib without grapefruit juice, steady state, mean (range)): 1120 ng·h/mL; Cmax [2, 9]: 14.4 ng/mL; Cmax ([2]; human, plasma, oral, sunitinib without grapefruit juice, mean (range)): 13 ng/mL; Increase of sunitinib exposure by grapefruit juice ([2]; sunitinib 24 h after last GJ consumption): ~ 5.3%; Increase of sunitinib exposure by grapefruit juice ([2]; sunitinib 72 h after last GJ consumption): ~ 1.3%; Increase of sunitinib exposure by grapefruit juice ([2]; sunitinib started 1 week after last GJ consumption): ~ 0.07%; T max [2, 10]: 8.2 (2.8–12.4) h; t 1/2 (elimination half-life) [2, 10]: 53 (12–107) h; Apparent volume of distribution [3]: ~ 2,000 liters; Effect of food intake on pharmacokinetics [3]: does not affect; Interpatient variability in sunitinib clearance [3]: ~ 40%; half-life [3]: ~ 50 h; Substrate of drug transporter ABCG2 (ABCG2): moderate substrate; Substrate of drug transporter ABCB1 (ABCB1): moderate substrate; Affinity for OATPs [4]: no affinity; Protein binding in vitro [5]: extensively protein bound; Time to reach steady-state PK [6]: ~ 8 days

Question: For `Cc1cn(-c2cc(NC(=O)c3ccc(C)c(Nc4nccc(-c5cccnc5)n4)c3)cc(C(F)(F)F)c2)cn1` [nilotinib], which “Effect of grapefruit juice on drug exposure” value [7] is on record?
Answer: Its value is “increase”.
